# Data reported in ChEMBL document CHEMBL6092226, “Tilting the Scales toward EGFR Mutant Selectivity: Expanding the Scope of Bivalent "Type V" Kinase Inhibitors” (J Med Chem, 2024).
# Calls of active or inactive are those of the source. The calls are words filed in the database; no cut-off is given here.
# Legend:
# [1] = biological target: T1, Dual specificity mitogen-activated protein kinase kinase 7 (Homo sapiens) (UniProt O14733); experiment: Inhibition of MKK7 (unknown origin) at 1 uM by Eurofins DiscoverX KINOMEscan analysis
# T1 sequence (whole entry): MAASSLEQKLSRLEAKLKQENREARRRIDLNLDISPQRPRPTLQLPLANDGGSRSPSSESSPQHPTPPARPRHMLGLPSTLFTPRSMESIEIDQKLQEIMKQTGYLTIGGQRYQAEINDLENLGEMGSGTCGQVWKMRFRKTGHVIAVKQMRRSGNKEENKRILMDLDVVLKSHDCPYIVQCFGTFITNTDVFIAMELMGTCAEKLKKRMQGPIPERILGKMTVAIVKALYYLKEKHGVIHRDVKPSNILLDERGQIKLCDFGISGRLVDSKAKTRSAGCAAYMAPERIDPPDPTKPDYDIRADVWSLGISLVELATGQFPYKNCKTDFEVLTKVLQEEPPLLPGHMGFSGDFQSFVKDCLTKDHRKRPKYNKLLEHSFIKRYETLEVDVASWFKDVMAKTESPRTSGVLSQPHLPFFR
# [2] = Drug metabolism in pooled male human liver microsomes assessed as thioether oxidation mediated metabolite formation at 150 uM measured after 2 hrs by LC-MS analysis; type: ADME, Microsome
# [3] = biological target: T2, Tyrosine-protein kinase ITK/TSK (Homo sapiens) (UniProt Q08881); experiment: Inhibition of ITK (unknown origin) at 1 uM by Eurofins DiscoverX KINOMEscan analysis
# T2 sequence (whole entry): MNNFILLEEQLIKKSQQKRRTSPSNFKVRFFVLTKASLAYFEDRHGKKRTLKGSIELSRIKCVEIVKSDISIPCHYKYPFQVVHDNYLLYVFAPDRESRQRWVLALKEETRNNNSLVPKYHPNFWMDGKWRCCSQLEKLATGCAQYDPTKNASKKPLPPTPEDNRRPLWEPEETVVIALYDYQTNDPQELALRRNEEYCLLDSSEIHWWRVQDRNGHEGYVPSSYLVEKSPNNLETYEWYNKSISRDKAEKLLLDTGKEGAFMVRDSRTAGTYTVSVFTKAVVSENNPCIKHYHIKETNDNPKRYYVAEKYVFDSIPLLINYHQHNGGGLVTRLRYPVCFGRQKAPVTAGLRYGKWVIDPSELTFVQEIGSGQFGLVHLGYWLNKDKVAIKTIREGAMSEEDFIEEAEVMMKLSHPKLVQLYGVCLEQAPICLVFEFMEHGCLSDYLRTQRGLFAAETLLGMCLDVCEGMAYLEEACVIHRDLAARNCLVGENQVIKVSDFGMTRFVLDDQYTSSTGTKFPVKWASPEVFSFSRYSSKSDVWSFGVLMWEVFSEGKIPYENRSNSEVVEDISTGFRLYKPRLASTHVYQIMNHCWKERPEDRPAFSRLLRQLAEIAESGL
# [4] = biological target: T3, Tyrosine-protein kinase Tec (Homo sapiens) (UniProt P42680); experiment: Inhibition of TEC (unknown origin) at 1 uM by Eurofins DiscoverX KINOMEscan analysis
# T3 sequence (whole entry): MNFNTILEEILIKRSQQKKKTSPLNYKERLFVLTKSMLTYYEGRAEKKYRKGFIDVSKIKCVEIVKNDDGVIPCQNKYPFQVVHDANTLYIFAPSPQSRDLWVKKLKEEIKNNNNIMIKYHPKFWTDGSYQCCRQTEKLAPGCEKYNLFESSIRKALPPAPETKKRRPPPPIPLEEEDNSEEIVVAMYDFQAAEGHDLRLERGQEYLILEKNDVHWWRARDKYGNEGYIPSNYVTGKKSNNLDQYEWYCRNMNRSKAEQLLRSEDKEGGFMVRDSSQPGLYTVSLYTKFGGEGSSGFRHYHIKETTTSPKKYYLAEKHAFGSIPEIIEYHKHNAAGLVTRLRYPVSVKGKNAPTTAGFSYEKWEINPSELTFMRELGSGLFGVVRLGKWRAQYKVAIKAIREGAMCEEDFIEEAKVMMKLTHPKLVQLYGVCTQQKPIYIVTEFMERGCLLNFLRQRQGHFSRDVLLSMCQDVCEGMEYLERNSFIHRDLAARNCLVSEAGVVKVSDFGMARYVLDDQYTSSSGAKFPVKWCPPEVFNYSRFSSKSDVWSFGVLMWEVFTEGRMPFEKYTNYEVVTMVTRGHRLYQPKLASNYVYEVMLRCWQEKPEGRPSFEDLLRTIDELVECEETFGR
# [5] = biological target: T4, Cytoplasmic tyrosine-protein kinase BMX (Homo sapiens) (UniProt P51813); experiment: Inhibition of BMX (unknown origin) at 1 uM by Eurofins DiscoverX KINOMEscan analysis
# T4 sequence (whole entry): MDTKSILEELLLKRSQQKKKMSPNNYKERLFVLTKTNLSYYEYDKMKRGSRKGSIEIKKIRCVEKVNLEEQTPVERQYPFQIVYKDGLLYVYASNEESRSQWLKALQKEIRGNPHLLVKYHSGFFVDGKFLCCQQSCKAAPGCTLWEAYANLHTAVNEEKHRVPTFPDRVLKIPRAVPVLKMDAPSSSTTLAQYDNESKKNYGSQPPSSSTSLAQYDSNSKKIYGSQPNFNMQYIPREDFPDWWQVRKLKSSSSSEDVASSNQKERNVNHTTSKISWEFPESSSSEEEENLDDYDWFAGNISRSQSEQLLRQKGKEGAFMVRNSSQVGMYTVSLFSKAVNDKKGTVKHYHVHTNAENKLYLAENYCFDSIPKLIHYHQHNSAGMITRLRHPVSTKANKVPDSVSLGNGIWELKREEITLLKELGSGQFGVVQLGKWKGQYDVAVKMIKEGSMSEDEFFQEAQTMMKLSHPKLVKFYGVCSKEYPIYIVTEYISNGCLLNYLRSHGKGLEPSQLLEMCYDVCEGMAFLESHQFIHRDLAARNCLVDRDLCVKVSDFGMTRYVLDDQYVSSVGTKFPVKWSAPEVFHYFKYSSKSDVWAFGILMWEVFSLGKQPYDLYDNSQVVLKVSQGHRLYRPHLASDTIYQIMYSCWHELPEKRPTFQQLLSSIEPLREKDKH
# [6] = biological target: Epidermal growth factor receptor (Homo sapiens, UniProt P00533, L858R); experiment: Time-dependent irreversible inhibition of GST-tagged EGFR L858R mutant cytoplasmic domain (669 to 1210 residues) (unknown origin) assessed as apparent inactivation constant (Ki) incubated for 240 mins in presence of ATP by fluorescence based analysis; settings: read-out: Ki(app)
# [7] = biological target: Myosin-IIIa (Homo sapiens) (UniProt Q8NEV4); experiment: Inhibition of MYO3A (unknown origin) at 1 uM by Eurofins DiscoverX KINOMEscan analysis relative to control
# Chain of Myosin-IIIa (Homo sapiens) (Q8NEV4 whole entry): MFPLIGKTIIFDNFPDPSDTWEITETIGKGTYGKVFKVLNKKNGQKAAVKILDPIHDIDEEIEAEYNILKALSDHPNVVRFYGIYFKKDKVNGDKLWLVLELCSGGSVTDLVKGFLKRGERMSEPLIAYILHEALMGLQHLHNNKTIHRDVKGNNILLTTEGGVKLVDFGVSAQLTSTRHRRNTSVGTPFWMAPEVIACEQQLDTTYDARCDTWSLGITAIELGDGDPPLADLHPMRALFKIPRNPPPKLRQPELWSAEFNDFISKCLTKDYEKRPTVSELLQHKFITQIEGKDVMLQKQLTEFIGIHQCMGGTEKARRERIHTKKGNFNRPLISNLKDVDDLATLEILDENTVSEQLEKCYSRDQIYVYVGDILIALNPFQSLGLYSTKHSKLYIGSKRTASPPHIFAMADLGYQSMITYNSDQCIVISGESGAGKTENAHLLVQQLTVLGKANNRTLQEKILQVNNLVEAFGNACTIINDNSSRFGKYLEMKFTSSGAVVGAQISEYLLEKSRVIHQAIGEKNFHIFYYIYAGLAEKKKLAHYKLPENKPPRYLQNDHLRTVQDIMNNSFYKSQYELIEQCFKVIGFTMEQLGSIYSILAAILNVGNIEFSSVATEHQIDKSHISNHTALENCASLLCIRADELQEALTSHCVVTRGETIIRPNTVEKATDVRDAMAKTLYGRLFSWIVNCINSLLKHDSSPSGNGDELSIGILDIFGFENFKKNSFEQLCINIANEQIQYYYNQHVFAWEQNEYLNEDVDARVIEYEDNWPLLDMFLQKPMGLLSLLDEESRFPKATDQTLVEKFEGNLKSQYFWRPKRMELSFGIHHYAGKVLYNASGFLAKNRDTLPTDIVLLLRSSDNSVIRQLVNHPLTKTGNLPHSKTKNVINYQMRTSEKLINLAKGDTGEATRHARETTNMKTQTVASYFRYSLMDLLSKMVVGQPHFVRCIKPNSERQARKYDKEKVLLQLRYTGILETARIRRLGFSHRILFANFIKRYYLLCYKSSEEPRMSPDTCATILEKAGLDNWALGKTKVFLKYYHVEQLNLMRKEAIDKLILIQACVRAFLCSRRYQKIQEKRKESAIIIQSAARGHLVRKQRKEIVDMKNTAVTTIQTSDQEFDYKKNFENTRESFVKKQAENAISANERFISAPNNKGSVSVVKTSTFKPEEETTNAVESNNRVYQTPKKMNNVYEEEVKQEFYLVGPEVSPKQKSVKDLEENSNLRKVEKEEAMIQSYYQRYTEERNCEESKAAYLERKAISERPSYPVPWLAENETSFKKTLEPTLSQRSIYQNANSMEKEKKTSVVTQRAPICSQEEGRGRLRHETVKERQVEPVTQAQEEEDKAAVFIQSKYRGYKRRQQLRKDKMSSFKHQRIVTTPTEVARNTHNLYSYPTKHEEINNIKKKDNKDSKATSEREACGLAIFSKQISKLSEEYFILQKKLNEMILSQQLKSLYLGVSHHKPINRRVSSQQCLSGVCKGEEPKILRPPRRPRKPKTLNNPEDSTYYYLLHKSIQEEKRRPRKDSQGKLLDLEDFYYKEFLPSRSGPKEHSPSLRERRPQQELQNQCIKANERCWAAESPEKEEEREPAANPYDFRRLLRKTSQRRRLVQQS
# Chain of Epidermal growth factor receptor (P00533 25-1210 L858R limits assumed): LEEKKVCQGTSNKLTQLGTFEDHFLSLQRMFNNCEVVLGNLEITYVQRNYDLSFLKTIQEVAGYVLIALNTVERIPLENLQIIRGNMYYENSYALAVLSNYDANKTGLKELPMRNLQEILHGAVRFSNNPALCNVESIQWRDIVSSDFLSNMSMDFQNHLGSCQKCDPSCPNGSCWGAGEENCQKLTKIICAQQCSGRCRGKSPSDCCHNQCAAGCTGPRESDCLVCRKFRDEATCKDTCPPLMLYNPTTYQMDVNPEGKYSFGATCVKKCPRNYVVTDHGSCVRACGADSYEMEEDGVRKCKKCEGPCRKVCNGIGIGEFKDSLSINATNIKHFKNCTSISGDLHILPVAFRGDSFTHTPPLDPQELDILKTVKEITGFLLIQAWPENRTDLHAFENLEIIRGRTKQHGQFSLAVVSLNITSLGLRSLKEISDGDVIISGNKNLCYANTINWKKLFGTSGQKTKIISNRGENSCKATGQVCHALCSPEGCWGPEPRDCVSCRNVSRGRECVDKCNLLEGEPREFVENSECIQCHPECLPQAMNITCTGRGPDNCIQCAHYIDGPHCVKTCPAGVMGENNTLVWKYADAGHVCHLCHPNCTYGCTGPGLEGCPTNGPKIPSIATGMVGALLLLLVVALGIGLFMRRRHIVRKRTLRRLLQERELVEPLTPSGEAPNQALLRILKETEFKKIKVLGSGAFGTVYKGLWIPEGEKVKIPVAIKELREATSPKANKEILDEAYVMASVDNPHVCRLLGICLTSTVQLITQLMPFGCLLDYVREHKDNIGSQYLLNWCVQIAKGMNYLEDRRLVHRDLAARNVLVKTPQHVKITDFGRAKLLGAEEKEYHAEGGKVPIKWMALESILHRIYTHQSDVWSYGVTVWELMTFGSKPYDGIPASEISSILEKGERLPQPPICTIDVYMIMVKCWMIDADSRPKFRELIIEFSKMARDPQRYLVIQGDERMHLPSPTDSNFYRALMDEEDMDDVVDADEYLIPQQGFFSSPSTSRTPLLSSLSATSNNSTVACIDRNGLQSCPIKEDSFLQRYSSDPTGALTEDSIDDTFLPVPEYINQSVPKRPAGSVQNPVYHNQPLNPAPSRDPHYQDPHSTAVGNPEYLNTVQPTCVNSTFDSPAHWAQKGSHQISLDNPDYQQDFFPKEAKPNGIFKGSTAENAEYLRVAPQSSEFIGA
structure (smiles),measurement,setting,value
C=CC(=O)Nc1ccc(OC)c(Nc2cc(-c3[nH]c(SC)nc3-c3cccc(NC(=O)c4cccc(O)c4CN4Cc5ccccc5C4=O)c3)ccn2)c1,inhibition,[1],inactive
same,Drug metabolism,[2],metabolite_detected
same,inhibition,[3],inactive
same,inhibition,[4],inactive
same,inhibition,[5],inactive
same,Ki,[6],276 nM
same,inhibition,[7],< 10%
